Data taken from patent publication US5198445A, “Composition and use of substituted 3-thio-2-propynenitriles as industrial antimicrobials” (The Dow Chemical Company, priority 1992, dated 1993).
In brackets after ≈: the same amount, converted by molar mass. Where two headings read alike, the source gives them in different places.

Assays:
[1] = Antimicrobial activity of decomposition product; format: cell-based
Text: It has also been discovered that the compounds of the present invention may degrade at a pH of 7 or above over an extended time period to compounds which are less antimicrobially active than the original compounds of the present invention.

Bacillus subtilis (Bs) = assay: MIC in nutrient agar, Bacillus subtilis; format: cell-based, Bacillus subtilis ATCC 8473; conditions: Bacillus subtilis
Protocol: (§1) The minimum inhibitory concentration (MIC) for the compounds listed in Table I is determined for 9 bacteria, using nutrient agar, and 7 yeast and fungi, using malt yeast agar. A one percent solution of the test compound is prepared in a mixture of acetone and water. Nutrient agar is prepared at pH 6.8, representing a neutral medium, and at pH 8.2, representing an alkaline medium. The nutrient agars are prepared by adding 23 g of nutrient agar to one-liter of deionized water. In addition, the alkaline medium is prepared by adjusting a 0.04M solution of N-[tris-(hydroxymethyl)methyl]-glycine buffered deionized water with concentrated sodium hydroxide to a pH of […]. Malt yeast agar is prepared by adding 3 g yeast extract and 45 g malt agar per liter of deionized water. The specific agar is dispensed in 30 ml aliquots into 25×200 mm test tubes, capped and autoclaved for 15 minutes at 115° C. The test tubes containing the agar are cooled in a water bath until the temperature of the agar is 48° C. Then, an appropriate amount of the one percent solution of the test compound is added (except in the controls where no compound is added) to the respective test tubes so that the final concentrations are 500, 250, 100, 50, 25, 10, 5, 2.5, 1.0 and zero parts per million of the test compound in the agar, thus having a known concentration of test compound dispersed therein. The contents of the test tubes are then transferred to respective petri plates. After drying for 24 hours, the petri plates containing nutrient agar are inoculated with bacteria and those containing malt yeast agar are inoculated with yeast and fungi.
(§2) The inoculation with bacteria is accomplished by using the following procedure. Twenty-four hour-cultures of each of the bacteria are prepared by incubating the respective bacteria in tubes containing nutrient broth for 24 hours at 30° C. in a shaker. Dilutions of each of the 24 hour-cultures are made so that nine separate suspensions (one for each of the nine test bacteria) are made, each containing 10^8 colony forming units (CFU) per ml of suspension of a particular bacteria. Aliquots of 0.3 ml of each of the bacterial suspensions are used to fill the individual wells of Steer's Replicator. For each microbial suspension, 0.3 ml was used to fill three wells (i.e., three wells of 0.3 ml each) so that for the nine different bacteria, 27 wells are filled. The Steer's Replicator is then used to inoculate both the neutral and alkaline pH nutrient agar petri plates.
(§3) The inoculated petri plates are incubated at 30° C. for 48 hours and then read to determine if the test compound which is incorporated into the agar prevented growth of the respective bacteria.
(§4) Table II lists the bacteria, yeast and fungi used in the MIC test described above along with their respective American Type Culture Collection (ATCC) identification numbers.
(§5) The following MIC and MEC antimicrobial tests, whose results are shown in Tables XIII-XVII, are performed using the same methods as described hereinabove.

[2] = tested on: Enterobacter aerogenes (Ea); assay: MIC in nutrient agar, Enterobacter aerogenes; format: cell-based, Enterobacter aerogenes ATCC 13048; conditions: Klebsiella aerogenes
Protocol: as §1, §2, §3, §4, §5

Escherichia coli (Ec) = assay: MIC in nutrient agar, Escherichia coli; format: cell-based, Escherichia coli ATCC 11229; conditions: Escherichia coli
Protocol: as §1, §2, §3, §4, §5

[3] = tested on: Klebsiella pneumoniae (Kp); assay: MIC in nutrient agar, Klebsiella pneumoniae; format: cell-based, Klebsiella pneumoniae ATCC 8308
Protocol: as §1, §2, §3, §4, §5

Proteus vulgaris (Pv) = assay: MIC in nutrient agar, Proteus vulgaris; format: cell-based, Proteus vulgaris ATCC 881
Protocol: as §1, §2, §3, §4, §5

[4] = tested on: Pseudomonas aeruginosa (PRD-10); assay: MIC in nutrient agar, Pseudomonas aeruginosa PRD-10; format: cell-based, Pseudomonas aeruginosa ATCC 15442; conditions: Pseudomonas aeruginosa
Protocol: as §1, §2, §3, §4, §5

[5] = tested on: Pseudomonas aeruginosa (Pa); assay: MIC in nutrient agar, Pseudomonas aeruginosa; format: cell-based, Pseudomonas aeruginosa ATCC 10145
Protocol: as §1, §2, §3, §4, §5

[6] = tested on: Salmonella choleraesuis (Sc); assay: MIC in nutrient agar, Salmonella choleraesuis; format: cell-based, Salmonella choleraesuis ATCC 10708; conditions: Salmonella enterica, CHOLERAESUIS
Protocol: as §1, §2, §3, §4, §5

[7] = tested on: Staphylococcus aureus (Sa); assay: MIC in nutrient agar, Staphylococcus aureus; format: cell-based, Staphylococcus aureus ATCC 6538; conditions: Staphylococcus aureus
Protocol: as §1, §2, §3, §4, §5

Aspergillus niger (An) = assay: MIC in malt yeast agar, Aspergillus niger; format: cell-based, Aspergillus niger ATCC 16404; conditions: read-out: Minimum Inhibitory Concentration, An
Protocol: as §1
(§6) The inoculation with the yeast and fungi is accomplished as follows. Cultures of yeast and fungi are incubated for seven days on malt yeast agar at 30° C. These cultures are used to prepare suspensions by the following procedure. A suspension of each organism is prepared by adding 10 ml of sterile saline and 10 microliters of octylphenoxy polyethoxy ethanol (TRITON® X-100, a trademark of Rohm & Haas Company) to the agar slant of yeast or fungi. The sterile saline/octylphenoxy polyethoxy ethanol solution is then agitated with a sterile swab to suspend the microorganism grown on the slant. Each resulting suspension is diluted into sterile saline (1 part suspension: 9 parts sterile saline). Aliquots of these dilutions are placed in individual wells of Steer's Replicator and petri plates inoculated as previously described. The petri plates are incubated at 30° C. and read after 48 hours for yeast and 72 hours for fungi.
as §4, §5

Candida albicans (Ca) = assay: MIC in malt yeast agar, Candida albicans; format: cell-based, Candida albicans ATCC 10231; conditions: read-out: Minimum Inhibitory Concentration, Ca
Protocol: as §1, §6, §4, §5

[8] = tested on: Penicillium chrysogenum (Pc); assay: MIC in malt yeast agar, Penicillium chrysogenum; format: cell-based, Penicillium chrysogenum ATCC 9480; conditions: read-out: Minimum Inhibitory Concentration, Pc
Protocol: as §1, §6, §4, §5

[9] = tested on: Saccharomyces cerevisiae (Sc); assay: MIC in malt yeast agar, Saccharomyces cerevisiae; format: cell-based, Saccharomyces cerevisiae ATCC 4105; conditions: read-out: Minimum Inhibitory Concentration, Sc
Protocol: as §1, §6, §4, §5

Trichoderma viride (Tv) = assay: MIC in malt yeast agar, Trichoderma viride; format: cell-based, Trichoderma viride ATCC 8678; conditions: read-out: Minimum Inhibitory Concentration, Tv
Protocol: as §1, §6, §4, §5

[10] = tested on: Aureobasidium pullulan (Ap); assay: MIC in malt yeast agar, Aureobasidium pullulan; format: cell-based, Aureobasidium pullulan ATCC 16622; conditions: read-out: Minimum Inhibitory Concentration, Ap
Protocol: as §1, §6, §4, §5

Fusarium oxysporum (Fo) = assay: MIC in malt yeast agar, Fusarium oxysporum; format: cell-based, Fusarium oxysporum ATCC 48112; conditions: read-out: Minimum Inhibitory Concentration, Fo
Protocol: as §1, §6, §4, §5

Structure (SMILES): CSC(=CC#N)SC [3,3-bis(methylthio)propenenitrile]
- antimicrobial activity of decomposition product [1]: virtually inactive as an antimicrobial

Structure (SMILES): CS/C=C(/Cl)C#N [Compound H, E isomer of 2-chloro-3-(methylthio)-2-propenenitrile]
- MIC (Bacillus subtilis (Bs); pH 6.8, read-out: Minimum Inhibitory Concentration, Bs): > 500 µg/mL
- MIC (Bacillus subtilis (Bs); pH 8.2, read-out: Minimum Inhibitory Concentration, Bs): 500 µg/mL (≈ 3.74 mM)
- MIC ([2]; pH 6.8, read-out: Minimum Inhibitory Concentration, Ea): > 500 µg/mL
- MIC ([2]; pH 8.2, read-out: Minimum Inhibitory Concentration, Ea): 500 µg/mL (≈ 3.74 mM)
- MIC (Escherichia coli (Ec); pH 6.8, read-out: Minimum Inhibitory Concentration, Ec): > 500 µg/mL
- MIC (Escherichia coli (Ec); pH 8.2, read-out: Minimum Inhibitory Concentration, Ec): 500 µg/mL (≈ 3.74 mM)
- MIC ([3]; pH 6.8, read-out: Minimum Inhibitory Concentration, Kp): > 500 µg/mL
- MIC ([3]; pH 8.2, read-out: Minimum Inhibitory Concentration, Kp): 500 µg/mL (≈ 3.74 mM)
- MIC (Proteus vulgaris (Pv); pH 6.8, read-out: Minimum Inhibitory Concentration, Pv): > 500 µg/mL
- MIC (Proteus vulgaris (Pv); pH 8.2, read-out: Minimum Inhibitory Concentration, Pv): 250 µg/mL (≈ 1.87 mM)
- MIC ([4]; pH 6.8, read-out: Minimum Inhibitory Concentration, PRD): > 500 µg/mL
- MIC ([4]; pH 8.2, read-out: Minimum Inhibitory Concentration, PRD): 250 µg/mL (≈ 1.87 mM)
- MIC ([5]; pH 6.8, read-out: Minimum Inhibitory Concentration, Pa): > 500 µg/mL
- MIC ([5]; pH 8.2, read-out: Minimum Inhibitory Concentration, Pa): 250 µg/mL (≈ 1.87 mM)
- MIC ([6]; pH 6.8, read-out: Minimum Inhibitory Concentration, Sc): > 500 µg/mL
- MIC ([6]; pH 8.2, read-out: Minimum Inhibitory Concentration, Sc): 500 µg/mL (≈ 3.74 mM)
- MIC ([7]; pH 6.8, read-out: Minimum Inhibitory Concentration, Sa): > 500 µg/mL
- MIC ([7]; pH 8.2, read-out: Minimum Inhibitory Concentration, Sa): 500 µg/mL (≈ 3.74 mM)
- MIC (Aspergillus niger (An)): 250 µg/mL (≈ 1.87 mM)
- MIC (Candida albicans (Ca)): 250 µg/mL (≈ 1.87 mM)
- MIC [8]: 100 µg/mL (≈ 0.748 mM)
- MIC [9]: 500 µg/mL (≈ 3.74 mM)
- MIC (Trichoderma viride (Tv)): 250 µg/mL (≈ 1.87 mM)
- MIC [10]: 250 µg/mL (≈ 1.87 mM)
- MIC (Fusarium oxysporum (Fo)): 100 µg/mL (≈ 0.748 mM)
